Data: ChEMBL document CHEMBL1122759, “6-Hydroxy-4-[2-(di-n-propylamino)ethyl]indole: synthesis and dopaminergic actions” (1984)
Calls of active or inactive are those of the source. No cut-off for these calls is given here.

Key:
[1] = tested on: Felis catus; experiment: Compound tested in vivo for sympathetic neuronal activity in cat cardioaccelerator nerve after iv administration; format: functional; conditions: Sympathetic neuron
[2] = tested on: Felis catus; experiment: Compound tested in vitro for sympathetic neuronal activity in cat atria […]; no inhibition with concentrations uM; format: functional; conditions: Sympathetic neuron
[3] = biological target: T1, Dopamine receptor (Homo sapiens) (UniProt P14416+P35462+P21918+P21917+P21728); experiment: […] inhibitory activity against dopamine receptor in isolated cat atria; inactive; conditions: Felis catus; target entry is the homologue from another species
[4] = tested on: Felis catus; experiment: Compound tested in vivo for sympathetic neuronal activity in cat cardioaccelerator nerve after intraduodenal administration; format: functional; conditions: Sympathetic neuron
[5] = biological target: T1, Dopamine receptor (Homo sapiens); experiment: […] inhibitory activity against dopamine receptor in isolated cat atria; active; conditions: Felis catus; target entry is the homologue from another species
[6] = tested on: Felis catus; experiment: Compound tested in vitro for sympathetic neuronal activity in cat atria […]; format: functional; conditions: Sympathetic neuron, read-out: ED50 (the source's name)

Compound | ED50 [1] [µmol/kg] | ED50 [2] | Activity [3] | ED50 [4] [µmol/kg] | Activity [5] | EC50 [6] [nM]
CCCN(CCC)CCc1cccc2[nH]ccc12 | 0.22 | inactive | inactive |  |  | 
CCCN(CCC)CCc1cc(O)cc2[nH]ccc12 | 0.019 |  |  | 0.047 | Active | 27
CN1C[C@H](CC#N)C[C@@H]2c3cccc4[nH]c(Cl)c(c34)C[C@H]21 [LERGOTRILE] | 0.27 |  |  |  |  | 
